Source: patent publication US10842793B2, “Inhibitors of the unconventional secretion of fibroblast growth factor 2 (FGF2) by tumor cells and uses thereof” (Universität Heidelberg, priority 2016, dated 2020)

Target: T1, GST-NΔ173 Tec (auto-phosphorylation) (Homo sapiens, UniProt P42680)
T1 construct: made in house; host or cells: SF9 insect cells (baculovirus)
Assay: In vitro Tec kinase auto-phosphorylation
Type: biochemical
Settings: 50 μM compound; for effect on NΔ173 Tec auto-phosphorylation in the presence of STAP1: STAP1 present; for inhibition of Tec auto-phosphorylation in the absence of a substrate: no FGF2, FIGS. 7B and 7E
Procedure: FGF2 tyrosine phosphorylation and Tec kinase auto-phosphorylation were reconstituted with purified components based on a Western analysis using anti-phosphotyrosine antibodies directed against an FGF2-derived phosphopeptide. In vitro phosphorylation experiments were conducted in the absence (1% DMSO mock control) and presence of the small molecule inhibitors (#6, #14, #21; 50 μM in 1% DMSO) and control compounds (#18, #19; 50 μM in 1% DMSO) introduced in FIGS. 4 and 5. Fluorescent secondary antibodies were used to detect antigens employing the LI-COR Odyssey imaging platform. M=PageRuler Prestained Protein Ladder. For details, see Experimental Procedures.
FGF2 and STAP1 tyrosine phosphorylation as well as Tec kinase auto-phosphorylation were analyzed as described in the legend to FIG. 6 and in Experimental Procedures. In vitro phosphorylation experiments were conducted in the absence (1% DMSO mock control) and presence of the small molecule inhibitors (#6, #14, #21; 50 μM in 1% DMSO) and control compounds (#18, #19; 50 μM in 1% DMSO) introduced in FIGS. 4 and 5. A Western analysis was conducted using anti-phosphotyrosine antibodies (anti-pY-FGF2 for FGF2 and Tec as well as anti-pY-4G10 for STAP1). M=PageRuler Prestained Protein Ladder: 140, 115, 80, 65, 50, 40, 30, 25, 15, 10 kDa. Fluorescent secondary antibodies were used to detect and quantify antigens using the LI-COR Odyssey imaging platform. In panels D, E and F, following normalization based upon background signals detected in the absence of Tec kinase or ATP, the average of the signals detected under mock conditions was defined as 100% activity. Standard deviations are shown. A one-tailed and unpaired T-test was conducted to assess statistical significance (* p<0.05, ** p<0.01, *** p<0.001, **** p<0.0001). “NS” indicates absence of significant differences.
A Tec kinase in vitro phosphorylation assay was established to test the inhibitory potential and selectivity of the small molecule inhibitors reported in this study (FIGS. 6 and 7). Tyrosine phosphorylation of FGF2 and STAP1, another established substrate of Tec kinase, was tested in a final volume of 100 μl (60 mM Hepes pH 7.5, 3 mM MgCl2, 20 μM ATP, 3 μM Sodium orthovanadate, 1.2 mM DTT, 50 ng/μl PEG 20000, 0.05% w/v Tween 20, 0.001% BSA). GST-NΔ173Tec (60 nM) was incubated in the absence (1% DMSO mock control) or presence of each compound (50 μM in 1% DMSO). Where indicated, reactions contained 250 nM of either FGF2 or 250 nM STAP1 (Hölzel Diagnostika, # GWB-P0486E-100). Following incubation at 30° C. for 45 minutes (corresponding to the midpoint of linear product formation), the reaction was terminated using SDS sample buffer and boiling for 4 minutes at 95° C. […] Phosphorylation levels of GST-NΔ173 Tec (auto-phosphorylation), FGF2 and STAP1 were quantified by a Western analysis using polyclonal anti-phosphotyrosine antibodies raised against a FGF2-derived synthetic peptide containing a phosphorylated tyrosine residue (ANRpYLAMKED; SEQ ID NO: 1). […] Phosphorylation levels of STAP1 were monitored using a monoclonal anti-phosphotyrosine antibody (clone 4G10®, #05-321, Merck Millipore). Appropriate fluorescent secondary antibodies (goat anti-rabbit IgG conjugated with Alexa Fluor® 680, # A-21076, Life Technologies; goat anti-mouse IgG conjugated with Alexa Fluor® 680, # A-21057, Life Technologies) were used to quantify all antigens employing the LI-COR Odyssey infrared imaging platform. […]

T1 sequence (P42680 174-631, stated change not applied): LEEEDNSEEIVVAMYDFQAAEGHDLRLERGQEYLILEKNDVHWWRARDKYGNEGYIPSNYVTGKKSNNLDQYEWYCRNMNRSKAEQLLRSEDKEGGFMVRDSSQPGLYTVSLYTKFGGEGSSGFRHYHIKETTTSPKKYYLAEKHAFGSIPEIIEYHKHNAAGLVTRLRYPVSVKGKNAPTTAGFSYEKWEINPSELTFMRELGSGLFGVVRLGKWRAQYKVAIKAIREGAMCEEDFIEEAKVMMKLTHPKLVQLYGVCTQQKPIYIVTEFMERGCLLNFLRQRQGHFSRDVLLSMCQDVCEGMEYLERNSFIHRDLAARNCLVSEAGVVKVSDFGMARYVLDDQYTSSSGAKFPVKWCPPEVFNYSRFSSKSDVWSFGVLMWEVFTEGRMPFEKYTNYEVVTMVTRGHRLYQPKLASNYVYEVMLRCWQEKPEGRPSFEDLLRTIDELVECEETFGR

COC(=O)c1c(C)[nH]c(C(=O)OCc2cc(=O)n3c(C)cccc3n2)c1C [compound #6]
effect on NΔ173 Tec auto-phosphorylation in the presence of STAP1: neither auto-phosphorylation of NΔ173 Tec nor tyrosine phosphorylation of STAP1 is affected
inhibition of Tec auto-phosphorylation in the absence of a substrate: particularly evident

CC(=O)c1c(C)[nH]c(C(=O)OCc2cc(=O)n3cc(Br)ccc3n2)c1C [compound #14]
effect on NΔ173 Tec auto-phosphorylation in the presence of STAP1: neither auto-phosphorylation of NΔ173 Tec nor tyrosine phosphorylation of STAP1 is affected

CC(=O)c1c(C)[nH]c(C(=O)CSc2nc3cc(Cl)cnc3[nH]2)c1C [compound #21]
effect on NΔ173 Tec auto-phosphorylation in the presence of STAP1: neither auto-phosphorylation of NΔ173 Tec nor tyrosine phosphorylation of STAP1 is affected
inhibition of Tec auto-phosphorylation in the absence of a substrate: particularly evident
